What all share (assay): NCI tumour cell line growth inhibition, 48 h
For assay [1], the system named is 786-0 renal.
The test system of assay [2] is A549 NSCLC.
Assay [3] relates to EKVX NSCLC.
The subject of assay [4] is HL-60(TB) leukemia.
In assay [5] the test system is HT29 colon.
Assay [6] deals with LOX IMVI melanoma.
Assay [7] concerns MCF7 breast.
The test system of assay [8] is MDA-MB-435.
The test system of assay [9] is MDA-N.
Assay [10] has as its system MOLT-4 leukemia.
In assay [11] the test system is NCI-H460 lung.
The test system of assay [12] is OVCAR-3 ovarian.
Assay [13] has as its system OVCAR-8 ovarian.
Assay [14] concerns SK-OV-3 ovarian.
In assay [15] the test system is SNB-75 CNS.
For assay [16], the system named is TK-10 renal.
In assay [17] the test system is UACC-257 melanoma.
The test system of assay [18] is UO-31 renal.

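96-well plates; 48 h exposure; 5 concentrations. Endpoints by linear interpolation between flanking doses. Not reached: highest tested concentration assigned. The concentration for full growth arrest is given as TGI.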 Where a SMILES comes first, the peptide text is derived from it. The star is where a group is joined. Boc = CC(C)(C)OC(=O)*; OBn = c1ccc(CO*)cc1

With `COC(=O)C1(Cc2ccc3c(c2)CCC3)Cc2ccc3c(c2C1)CCC3` (stereo not given), the TGI in assay [1] is 97.6 µM; in assay [2] it was more than 100 µM; in assay [3] it was more than 100 µM; in [4] it was more than 100 µM; in assay [5], 33.9 µM; in assay [6], 32.9 µM. In addition, the TGI was 31.4 µM in assay [7]; 39 µM in assay [8]; 41 µM in assay [9]; more than 100 µM in assay [10]; 73.2 µM in assay [11]; 60.1 µM in [12]. The TGI was more than 100 µM in assay [13]; more than 100 µM in assay [14]; more than 100 µM in assay [15]; more than 100 µM in assay [16]; 30.3 µM in assay [17]; 74 µM in assay [18].
For the molecule `CC(=O)N(CN1C(=O)CCC1C(=O)O)c1cccc(O)c1` (stereo not given), the TGI in [1], in [2], in [3], in assay [4], in assay [5] and in assay [6] was more than 100 µM throughout. Moreover, the TGI in assay [7], in assay [8], in assay [9], in assay [10], in assay [11] and in [12] was more than 100 µM each time. In addition, the TGI in [13], in assay [14], in [15], in [16], in assay [17] and in assay [18] was more than 100 µM in each case.
With `O=C(/C=C/c1ccccc1)CSc1nc2ccc(I)cc2c(=O)n1Cc1ccccc1`, the TGI in [1] is 35.9 µM; in assay [2] it was more than 100 µM; in [3], more than 37.2 µM; in assay [4] it was 57.2 µM; in [5] it was more than 100 µM; in [6], more than 100 µM. The TGI in assay [7] was more than 100 µM; in [8] it was more than 100 µM; in assay [9], more than 100 µM; in [10], 35.2 µM; in assay [11] it was more than 100 µM; in assay [12] it was more than 90.6 µM. Moreover, the TGI was more than 100 µM in assay [13]; more than 100 µM in assay [14]; more than 95.7 µM in assay [15]; more than 84.6 µM in assay [16]; more than 100 µM in assay [17]; 0.553 µM in [18].
Regarding `COc1cccc(C2SCC(=O)N2c2ccc(-n3c(-c4ccccc4)nc4ccccc4c3=O)cc2)c1OC` (stereo not given), the TGI in assay [1], in [2], in assay [3], in assay [4], in assay [5] and in assay [6] was more than 100 µM in each case. In addition, the TGI in assay [7], in [8], in assay [9], in assay [10], in [11] and in [12] was more than 100 µM in each case. Moreover, the TGI in assay [13], in [14], in assay [15], in assay [16], in assay [17] and in [18] was more than 100 µM throughout.
For the molecule `COc1cccc2c1C(=O)c1ccc3cc(CCl)cc(O)c3c1C2=O`, the TGI is 0.432 µM in [1]; 1.36 µM in assay [2]; 1.57 µM in assay [3]; 0.551 µM in assay [4]; 0.578 µM in assay [5]; 0.595 µM in [6]. Besides, the TGI in assay [7] came to 1.31 µM; in [8], 0.46 µM; in assay [9] it was 0.765 µM; in assay [10], 2.88 µM; in [11] it was 0.768 µM; in assay [12] it was 0.696 µM. For the same molecule, the TGI was 0.612 µM in [13]; 1.83 µM in assay [14]; 1.67 µM in assay [15]; 0.823 µM in assay [16]; 0.698 µM in assay [17]; 1.14 µM in [18].
For the molecule `c1ccc2c(c1)nc1n2C2CCC(C2)N1` (stereo not given), the TGI in assay [1], in assay [2], in assay [3], in [4], in assay [5] and in [6] was more than 10 µM in each case. Also, the TGI in [7], in [8], in assay [9], in [10], in [11] and in [12] was more than 10 µM each time. Besides, the TGI in assay [13], in assay [14], in assay [15], in assay [16], in assay [17] and in [18] was more than 10 µM each time.
`O=C1Nc2ccccc2/C1=C/c1c(Cl)[nH]c2ccc(O)cc12`: the TGI in assay [1] is 25.9 µM; in assay [2], more than 37.8 µM; in assay [3], 22.5 µM; in assay [4], 5.31 µM; in [5], 12.1 µM; in assay [6] it was 27.8 µM. In addition, the TGI is 14.8 µM in assay [7]; 0.947 µM in assay [8]; 1.6 µM in [9]; 40.1 µM in [10]; 13.9 µM in assay [11]; more than 48.1 µM in assay [12]. Besides, the TGI stood at 12.8 µM in assay [13]; 30.4 µM in [14]; 12.4 µM in [15]; 37.1 µM in assay [16]; 22.6 µM in assay [17]; 28.2 µM in assay [18].
On to `CN(C)CCn1c(=O)c2ccc3c4c(nn3CCN(C)C)c3cc(O)ccc3n(c1=O)c24`, for which the TGI in assay [1] was 0.424 µM; in assay [2], 1.54 µM; in assay [3] it was 0.366 µM; in assay [4] it was 1.96 µM; in [5], 0.262 µM; in assay [6] it was 0.101 µM. Further, the TGI in assay [7] was found to be 0.392 µM; in assay [8] it was 0.641 µM; in assay [9] it was 0.603 µM; in assay [10] it was 0.127 µM; in [11] it was 0.254 µM; in assay [12], 0.842 µM. For the same molecule, the TGI turned out to be 0.124 µM in assay [13]; 0.74 µM in [14]; 1.42 µM in assay [15]; 0.837 µM in assay [16]; 1.16 µM in [17]; 0.675 µM in assay [18].
For the molecule `COC(C)(C)CCc1[nH]c2ccccc2c1CC(=O)NCCc1cncn1C`, the TGI in assay [1], in assay [2], in assay [3], in assay [4], in [5] and in [6] was more than 100 µM throughout. Moreover, the TGI in assay [7], in [8], in [9], in assay [10], in [11] and in assay [12] was more than 100 µM throughout. The TGI in [13], in assay [14], in assay [15], in [16], in assay [17] and in assay [18] was more than 100 µM in each case.
For the molecule `CC(NC(=O)C(Cc1ccccc1)NC(=O)C(Cc1ccccc1)NC(=O)OC(C)(C)C)C(=O)OCc1ccccc1` (stereo not drawn) (Boc-Phe-Phe-Ala-OBn; configuration not given here), the TGI in assay [1], in assay [2], in assay [3], in assay [4], in [5] and in assay [6] was more than 100 µM in each case. Besides, the TGI in [7], in assay [8], in assay [9], in assay [10], in assay [11] and in assay [12] was more than 100 µM in each case. Besides, the TGI in assay [13], in assay [14], in [15], in assay [16], in assay [17] and in [18] was more than 100 µM in each case.
Turning to `CCOC(=O)/C=C(\C(=O)OCC)n1ccc(=O)n(CC(=O)OCC)c1=O`, the TGI in [1] worked out at 4.1 µM; in [2], 32.3 µM; in assay [3] it was 35.5 µM; in [4], 1.22 µM; in assay [5], 16.2 µM; in [6], 5.23 µM. Further, the TGI in assay [7] came to 9.73 µM; in assay [8], 16.4 µM; in assay [9], 17 µM; in assay [10] it was 4.62 µM; in assay [11], 32.2 µM; in assay [12], 12.5 µM. The TGI is 14.3 µM in [13]; 32.4 µM in assay [14]; 24.5 µM in [15]; 6.04 µM in [16]; 24.2 µM in [17]; 17.5 µM in assay [18].
As for `CC(C)(C)[Si](C)(C)OCCOCn1cc(F)c(=O)[nH]c1=O`, the TGI in [1], in assay [2], in [3], in [4], in assay [5] and in assay [6] was more than 100 µM each time. Besides, the TGI in [7], in assay [8], in [9], in assay [10], in assay [11] and in [12] was more than 100 µM in each case. The TGI in [13], in assay [14], in assay [15], in assay [16], in [17] and in [18] was more than 100 µM each time.
Turning to `CCOc1cc2c(cc1OC(C)=O)C(=O)CC[C@H]1C3CC[C@H](OC(C)=O)[C@@]3(C)CC[C@H]21` (stereo not given in full), the TGI in assay [1], in [2], in assay [3], in [4], in assay [5] and in [6] was more than 100 µM each time. The TGI in assay [7], in assay [8], in [9], in [10], in assay [11] and in [12] was more than 100 µM in each case. The TGI in assay [13], in assay [14], in assay [15], in assay [16], in assay [17] and in [18] was more than 100 µM in each case.
As for `Cn1c(=O)c2c(ncn2CCCCOc2ccc3c(c2)[n+]([O-])nc(N)[n+]3[O-])n(C)c1=O`, the TGI in [1], in [2], in [3], in [4], in assay [5] and in assay [6] was more than 100 µM throughout. Also, the TGI in [7], in [8], in assay [9], in assay [10], in assay [11] and in [12] was more than 100 µM throughout. Also, the TGI was more than 100 µM in [13]; more than 100 µM in [14]; 90 µM in assay [15]; more than 100 µM in assay [16]; more than 100 µM in assay [17]; more than 100 µM in assay [18].
On to `Oc1ccc(/C=C/c2ccc3cccc(O)c3n2)cc1O`, for which the TGI in assay [1] is 50.9 µM; in assay [2], 27.8 µM; in assay [3], 30.8 µM; in assay [4], more than 100 µM; in assay [5], 37.7 µM; in assay [6], 16.5 µM. The TGI was 93.7 µM in assay [7]; more than 100 µM in assay [8]; 44.7 µM in [9]; 21.5 µM in assay [10]; 13.9 µM in assay [11]; 46 µM in assay [12]. The TGI in assay [13] was more than 100 µM; in assay [14] it was more than 100 µM; in [15], 9.65 µM; in assay [16] it was 90.8 µM; in assay [17], 47.3 µM; in assay [18] it was 7.71 µM.

The record behind these values is PubChem BioAssay (NCI).
